According to ChEMBL document CHEMBL5291721, “A preclinical secondary pharmacology resource illuminates target-adverse drug reaction associations of marketed drugs” (Nat Commun, 2023):

Assays:
Thromboxane A2 receptor = target: T1, Thromboxane A2 receptor (Homo sapiens, UniProt P21731)
T1 sequence (P21731 whole entry): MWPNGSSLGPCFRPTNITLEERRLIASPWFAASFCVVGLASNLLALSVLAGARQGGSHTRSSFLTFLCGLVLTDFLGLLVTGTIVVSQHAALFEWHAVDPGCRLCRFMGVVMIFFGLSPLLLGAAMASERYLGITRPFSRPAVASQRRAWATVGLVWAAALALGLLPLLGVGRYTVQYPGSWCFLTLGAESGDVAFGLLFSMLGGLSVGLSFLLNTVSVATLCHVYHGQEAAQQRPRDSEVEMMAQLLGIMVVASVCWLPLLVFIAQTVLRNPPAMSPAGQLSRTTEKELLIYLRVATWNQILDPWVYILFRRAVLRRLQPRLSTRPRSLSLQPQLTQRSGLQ

[1] = target: 5-hydroxytryptamine receptor 2B (Homo sapiens, UniProt P41595); format: functional, cell-based
Sequence of 5-hydroxytryptamine receptor 2B (P41595 whole entry): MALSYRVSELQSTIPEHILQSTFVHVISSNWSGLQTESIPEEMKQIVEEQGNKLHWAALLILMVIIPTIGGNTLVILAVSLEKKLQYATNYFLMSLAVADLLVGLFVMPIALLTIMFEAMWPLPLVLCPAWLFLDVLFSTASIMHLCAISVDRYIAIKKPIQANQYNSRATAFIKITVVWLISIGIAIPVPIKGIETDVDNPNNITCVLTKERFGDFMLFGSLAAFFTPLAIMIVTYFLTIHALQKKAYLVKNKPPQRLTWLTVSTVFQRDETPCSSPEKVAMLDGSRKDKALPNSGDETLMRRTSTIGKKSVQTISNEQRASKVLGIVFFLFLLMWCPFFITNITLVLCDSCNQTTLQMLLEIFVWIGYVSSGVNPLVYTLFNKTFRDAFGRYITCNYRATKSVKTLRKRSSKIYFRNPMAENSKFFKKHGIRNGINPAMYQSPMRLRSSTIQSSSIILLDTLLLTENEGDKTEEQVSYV

Adenosine receptor A2a = Adenosine receptor A2a (Homo sapiens, UniProt P29274)
Sequence of Adenosine receptor A2a (P29274 whole entry): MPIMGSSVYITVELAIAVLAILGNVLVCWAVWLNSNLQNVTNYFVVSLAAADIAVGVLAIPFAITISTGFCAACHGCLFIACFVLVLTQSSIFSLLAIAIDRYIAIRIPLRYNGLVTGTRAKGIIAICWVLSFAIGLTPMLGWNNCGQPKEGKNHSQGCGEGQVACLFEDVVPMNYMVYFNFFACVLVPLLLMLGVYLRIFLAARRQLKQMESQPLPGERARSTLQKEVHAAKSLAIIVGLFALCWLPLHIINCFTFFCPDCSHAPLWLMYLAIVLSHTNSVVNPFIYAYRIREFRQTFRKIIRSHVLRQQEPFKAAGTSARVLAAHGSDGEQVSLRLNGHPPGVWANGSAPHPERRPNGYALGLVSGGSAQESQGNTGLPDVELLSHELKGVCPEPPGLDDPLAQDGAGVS

[2] = target: T2, Gastrin/cholecystokinin type B receptor (Homo sapiens, UniProt P32239)
T2 sequence (P32239 whole entry): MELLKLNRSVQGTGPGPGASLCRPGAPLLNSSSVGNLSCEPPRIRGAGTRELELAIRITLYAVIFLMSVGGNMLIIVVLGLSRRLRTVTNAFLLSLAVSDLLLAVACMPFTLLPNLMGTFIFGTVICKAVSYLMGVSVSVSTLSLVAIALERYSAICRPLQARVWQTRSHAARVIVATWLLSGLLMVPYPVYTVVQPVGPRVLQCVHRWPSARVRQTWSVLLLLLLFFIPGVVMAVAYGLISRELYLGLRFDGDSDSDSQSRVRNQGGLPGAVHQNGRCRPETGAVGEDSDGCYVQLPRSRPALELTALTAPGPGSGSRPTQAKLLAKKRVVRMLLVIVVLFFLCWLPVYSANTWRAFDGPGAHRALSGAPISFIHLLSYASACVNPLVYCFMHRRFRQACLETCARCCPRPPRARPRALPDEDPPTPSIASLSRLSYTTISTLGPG

[3] = target: Glutamate receptor ionotropic, NMDA 1 (Rattus norvegicus, UniProt P35439)
Cannabinoid receptor 1 = Cannabinoid receptor 1 (Homo sapiens, UniProt P21554); format: functional, cell-based
Sequence of Cannabinoid receptor 1 (P21554 whole entry): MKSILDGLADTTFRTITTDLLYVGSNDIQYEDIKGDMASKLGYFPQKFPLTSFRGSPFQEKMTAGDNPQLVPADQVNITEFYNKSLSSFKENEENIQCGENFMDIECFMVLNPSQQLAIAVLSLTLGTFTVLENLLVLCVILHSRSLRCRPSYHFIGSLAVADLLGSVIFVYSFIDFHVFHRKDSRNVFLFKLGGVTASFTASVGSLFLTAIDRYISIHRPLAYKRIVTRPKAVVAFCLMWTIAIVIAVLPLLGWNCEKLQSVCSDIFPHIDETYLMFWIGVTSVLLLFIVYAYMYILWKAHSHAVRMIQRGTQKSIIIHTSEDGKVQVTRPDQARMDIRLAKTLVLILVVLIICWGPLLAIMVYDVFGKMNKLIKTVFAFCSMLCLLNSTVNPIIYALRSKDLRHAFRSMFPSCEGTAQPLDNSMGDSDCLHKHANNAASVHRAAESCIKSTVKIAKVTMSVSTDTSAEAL

[4] = target: Delta-type opioid receptor (Homo sapiens, UniProt P41143)
Sequence of Delta-type opioid receptor (P41143 whole entry): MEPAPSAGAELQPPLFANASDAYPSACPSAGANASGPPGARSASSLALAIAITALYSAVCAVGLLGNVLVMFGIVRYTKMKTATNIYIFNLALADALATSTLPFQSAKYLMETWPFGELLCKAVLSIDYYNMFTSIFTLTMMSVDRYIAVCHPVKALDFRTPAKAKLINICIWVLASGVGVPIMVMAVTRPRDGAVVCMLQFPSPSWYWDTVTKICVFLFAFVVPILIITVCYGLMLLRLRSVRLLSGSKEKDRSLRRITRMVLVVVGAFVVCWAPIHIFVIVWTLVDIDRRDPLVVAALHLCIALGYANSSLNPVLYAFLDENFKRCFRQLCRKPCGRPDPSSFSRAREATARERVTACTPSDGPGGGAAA

Histamine H2 receptor = Histamine H2 receptor (Homo sapiens, UniProt P25021); format: functional, cell-based
Sequence of Histamine H2 receptor (P25021 whole entry): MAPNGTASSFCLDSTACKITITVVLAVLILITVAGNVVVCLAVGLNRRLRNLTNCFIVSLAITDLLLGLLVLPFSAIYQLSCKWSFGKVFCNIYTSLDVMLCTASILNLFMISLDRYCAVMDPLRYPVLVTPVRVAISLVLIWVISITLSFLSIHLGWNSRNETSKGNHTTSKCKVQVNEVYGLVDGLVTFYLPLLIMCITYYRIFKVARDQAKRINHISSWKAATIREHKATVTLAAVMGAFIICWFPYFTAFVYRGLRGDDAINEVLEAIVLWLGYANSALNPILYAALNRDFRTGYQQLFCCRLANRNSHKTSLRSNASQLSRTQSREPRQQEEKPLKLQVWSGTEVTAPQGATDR

[5] = target: Sodium-dependent serotonin transporter (Homo sapiens, UniProt P31645)
[6] = target: 5-hydroxytryptamine receptor 2A (Homo sapiens, UniProt P28223); format: functional, cell-based
Sequence of 5-hydroxytryptamine receptor 2A (P28223 whole entry): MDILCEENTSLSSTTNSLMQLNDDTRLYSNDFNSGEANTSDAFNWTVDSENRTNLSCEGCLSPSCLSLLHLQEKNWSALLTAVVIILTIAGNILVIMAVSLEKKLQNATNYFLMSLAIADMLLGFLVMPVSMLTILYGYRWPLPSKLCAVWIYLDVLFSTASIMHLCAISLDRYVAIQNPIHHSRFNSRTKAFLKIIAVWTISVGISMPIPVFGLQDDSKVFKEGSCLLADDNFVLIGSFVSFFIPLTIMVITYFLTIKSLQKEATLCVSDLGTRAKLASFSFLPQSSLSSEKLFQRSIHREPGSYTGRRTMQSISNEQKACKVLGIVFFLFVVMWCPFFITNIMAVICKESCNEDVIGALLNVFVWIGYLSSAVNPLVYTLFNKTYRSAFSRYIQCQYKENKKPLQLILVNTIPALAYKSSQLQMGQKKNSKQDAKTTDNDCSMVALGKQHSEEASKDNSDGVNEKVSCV

[7] = target: Growth hormone secretagogue receptor type 1 (Homo sapiens, UniProt Q92847)
Sequence of Growth hormone secretagogue receptor type 1 (Q92847 whole entry): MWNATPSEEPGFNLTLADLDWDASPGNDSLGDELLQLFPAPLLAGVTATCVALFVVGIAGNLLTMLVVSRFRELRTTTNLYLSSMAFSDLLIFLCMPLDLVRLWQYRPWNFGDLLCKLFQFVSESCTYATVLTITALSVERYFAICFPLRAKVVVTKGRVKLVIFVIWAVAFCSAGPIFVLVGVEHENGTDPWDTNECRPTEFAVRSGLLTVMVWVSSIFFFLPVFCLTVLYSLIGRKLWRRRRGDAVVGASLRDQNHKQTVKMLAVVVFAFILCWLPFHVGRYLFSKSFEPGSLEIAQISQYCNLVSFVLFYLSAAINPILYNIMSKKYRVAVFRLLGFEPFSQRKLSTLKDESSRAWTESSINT

[8] = target: cGMP-inhibited 3',5'-cyclic phosphodiesterase 3A (Homo sapiens, UniProt Q14432); format: functional
Sequence of cGMP-inhibited 3',5'-cyclic phosphodiesterase 3A (Q14432 whole entry): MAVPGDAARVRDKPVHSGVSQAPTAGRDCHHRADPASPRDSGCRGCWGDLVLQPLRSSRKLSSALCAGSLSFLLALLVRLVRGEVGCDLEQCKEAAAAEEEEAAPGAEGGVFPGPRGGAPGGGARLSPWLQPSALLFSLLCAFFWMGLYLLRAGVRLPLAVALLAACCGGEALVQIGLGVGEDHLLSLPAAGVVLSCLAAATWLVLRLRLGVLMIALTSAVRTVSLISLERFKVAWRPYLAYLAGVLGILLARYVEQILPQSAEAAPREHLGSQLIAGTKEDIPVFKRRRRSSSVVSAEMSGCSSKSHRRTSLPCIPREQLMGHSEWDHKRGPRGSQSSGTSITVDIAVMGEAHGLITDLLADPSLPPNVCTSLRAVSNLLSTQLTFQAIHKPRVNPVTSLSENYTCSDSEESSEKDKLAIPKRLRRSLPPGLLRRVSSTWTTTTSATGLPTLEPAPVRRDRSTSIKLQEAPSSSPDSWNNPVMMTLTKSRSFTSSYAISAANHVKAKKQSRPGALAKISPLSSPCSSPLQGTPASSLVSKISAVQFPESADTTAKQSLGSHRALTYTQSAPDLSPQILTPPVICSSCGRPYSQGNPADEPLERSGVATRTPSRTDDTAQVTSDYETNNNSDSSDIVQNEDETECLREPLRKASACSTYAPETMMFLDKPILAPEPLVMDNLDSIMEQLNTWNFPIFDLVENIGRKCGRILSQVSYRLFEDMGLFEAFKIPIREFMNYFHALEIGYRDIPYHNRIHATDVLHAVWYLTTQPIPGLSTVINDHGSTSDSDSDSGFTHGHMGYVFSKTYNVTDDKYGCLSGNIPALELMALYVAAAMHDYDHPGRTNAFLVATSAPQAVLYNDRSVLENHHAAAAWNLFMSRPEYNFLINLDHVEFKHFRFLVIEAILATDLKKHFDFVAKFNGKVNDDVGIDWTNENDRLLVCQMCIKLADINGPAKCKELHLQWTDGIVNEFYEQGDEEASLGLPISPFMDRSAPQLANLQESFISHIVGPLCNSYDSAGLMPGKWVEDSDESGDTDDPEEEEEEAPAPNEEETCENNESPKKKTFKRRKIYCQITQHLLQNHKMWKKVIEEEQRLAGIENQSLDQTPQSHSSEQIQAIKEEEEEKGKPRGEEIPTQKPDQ

[9] = target: Beta-1 adrenergic receptor (Homo sapiens, UniProt P08588); format: functional
Sequence of Beta-1 adrenergic receptor (P08588 whole entry): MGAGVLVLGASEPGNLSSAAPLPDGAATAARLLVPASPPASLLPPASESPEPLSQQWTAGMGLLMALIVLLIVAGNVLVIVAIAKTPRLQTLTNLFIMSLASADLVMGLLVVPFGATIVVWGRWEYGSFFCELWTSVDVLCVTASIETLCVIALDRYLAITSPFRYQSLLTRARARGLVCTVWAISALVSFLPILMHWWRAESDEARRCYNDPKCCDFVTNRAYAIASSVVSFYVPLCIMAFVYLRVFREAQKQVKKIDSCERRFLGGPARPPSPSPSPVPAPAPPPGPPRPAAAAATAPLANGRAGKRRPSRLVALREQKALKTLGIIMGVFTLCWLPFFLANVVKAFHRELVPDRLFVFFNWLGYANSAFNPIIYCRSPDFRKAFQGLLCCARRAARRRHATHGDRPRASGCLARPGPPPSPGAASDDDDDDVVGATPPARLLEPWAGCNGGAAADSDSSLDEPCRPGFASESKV

[10] = target: T3, 5-hydroxytryptamine receptor 1A (Homo sapiens, UniProt P08908); format: functional, cell-based
T3 sequence (P08908 whole entry): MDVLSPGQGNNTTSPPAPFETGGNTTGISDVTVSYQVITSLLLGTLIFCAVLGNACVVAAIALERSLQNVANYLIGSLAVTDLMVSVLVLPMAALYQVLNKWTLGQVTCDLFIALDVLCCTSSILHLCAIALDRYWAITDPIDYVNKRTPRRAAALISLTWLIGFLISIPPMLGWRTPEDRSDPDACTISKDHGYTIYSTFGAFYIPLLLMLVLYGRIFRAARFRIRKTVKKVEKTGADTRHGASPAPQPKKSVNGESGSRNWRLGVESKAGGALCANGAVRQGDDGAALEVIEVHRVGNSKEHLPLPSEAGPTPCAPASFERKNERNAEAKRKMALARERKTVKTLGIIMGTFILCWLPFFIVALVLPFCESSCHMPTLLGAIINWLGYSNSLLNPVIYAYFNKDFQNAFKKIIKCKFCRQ

[11] = target: T4, Type-1 angiotensin II receptor (Homo sapiens, UniProt P30556)
T4 sequence (P30556 whole entry): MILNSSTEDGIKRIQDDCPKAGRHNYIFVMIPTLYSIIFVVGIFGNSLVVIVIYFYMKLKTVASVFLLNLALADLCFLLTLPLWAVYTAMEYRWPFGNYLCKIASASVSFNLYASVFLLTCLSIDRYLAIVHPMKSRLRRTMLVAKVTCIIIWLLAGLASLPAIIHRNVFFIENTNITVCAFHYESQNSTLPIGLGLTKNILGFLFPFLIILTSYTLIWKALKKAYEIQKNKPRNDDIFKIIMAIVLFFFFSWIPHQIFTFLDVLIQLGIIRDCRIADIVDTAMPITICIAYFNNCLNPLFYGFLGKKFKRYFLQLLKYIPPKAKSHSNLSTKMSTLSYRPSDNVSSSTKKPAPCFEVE

[12] = target: T5, Cholecystokinin receptor type A (Homo sapiens, UniProt P32238)
T5 sequence (P32238 whole entry): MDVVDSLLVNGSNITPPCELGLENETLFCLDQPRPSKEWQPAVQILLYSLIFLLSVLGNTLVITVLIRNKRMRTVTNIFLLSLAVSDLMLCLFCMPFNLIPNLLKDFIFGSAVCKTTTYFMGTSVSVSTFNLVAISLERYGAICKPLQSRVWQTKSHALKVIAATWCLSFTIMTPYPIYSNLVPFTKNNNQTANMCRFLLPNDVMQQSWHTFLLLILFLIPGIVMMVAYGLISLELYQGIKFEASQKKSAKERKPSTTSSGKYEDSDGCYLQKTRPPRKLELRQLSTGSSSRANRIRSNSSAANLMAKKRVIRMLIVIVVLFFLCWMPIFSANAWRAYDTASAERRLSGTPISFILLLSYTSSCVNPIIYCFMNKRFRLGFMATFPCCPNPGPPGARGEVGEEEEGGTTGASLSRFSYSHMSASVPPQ
Note: assay procedure not described here.

SMILES	AC50 (Thromboxane A2 receptor) [µM]	AC50 [1] [µM]	AC50 (Adenosine receptor A2a) [µM]	AC50 [2] [µM]	AC50 [3] [µM]	AC50 (Cannabinoid receptor 1) [µM]	AC50 [4] [µM]	AC50 (Histamine H2 receptor) [µM]	AC50 [5] [µM]	AC50 [6] [µM]	AC50 [7] [µM]	AC50 [8] [µM]	AC50 [9] [µM]	AC50 [10] [µM]	AC50 [11] [µM]	AC50 [12] [µM]
Clc1ccc(CCCOCCCN2CCCCC2)cc1 [PITOLISANT]	> 30	> 30	> 30	> 30	> 30	> 30	> 30	> 30	9.9	> 30	> 30	> 30	> 30	> 30	> 30	> 30
C=CCN1CCCC1CNC(=O)c1cc(S(N)(=O)=O)cc(OC)c1OC (stereo not drawn) [VERALIPRIDE]	> 30	> 30	> 30	> 30	> 30	> 30	> 30	> 30	25	> 30	> 30	> 10	> 30	3.6	> 30	> 30
CCC(C(=O)O)c1ccc(N2Cc3ccccc3C2=O)cc1 (stereo not drawn) [INDOBUFEN]	> 30	> 30	> 30	> 30	> 30	> 30	> 30	> 30	> 30	> 30	> 30	> 30	> 30	1.9	> 30	> 30
Cc1ccc(-n2nccn2)c(C(=O)N2CCN(c3nc4cc(Cl)ccc4o3)CC[C@H]2C)c1 [SUVOREXANT]	> 10	> 30	> 30	> 30	> 30	> 30	> 30	> 30	> 30	> 30	> 30	> 30	> 30	> 30	> 30	> 30
CCOC(=O)[C@H](CCc1ccccc1)N[C@@H](C)C(=O)N1C(=O)N(C)C[C@H]1C(=O)O	> 30	> 30	> 30	> 30	> 30	> 30	> 30	> 30	> 30	> 30	> 30	> 30	> 30	> 30	> 30	> 30
CCCCc1ncc(/C=C(\Cc2cccs2)C(=O)O)n1Cc1ccc(C(=O)O)cc1 [EPROSARTAN]	> 10	> 10	> 10	> 10	> 10	> 30	> 10	> 10	> 30	> 30	> 10	> 10	> 10	> 10	0.0019	> 30
COc1ccccc1OCCNCC(O)c1ccc(C)c(S(N)(=O)=O)c1 (stereo not drawn) [AMOSULALOL]	> 30	1.6	> 30	> 30	> 30	> 30	> 30	> 30	29	> 30	> 30	> 10	0.06	0.16	> 30	> 30
COc1ccc(-c2ccc3cc(C(=O)O)ccc3c2)cc1C12CC3CC(CC(C3)C1)C2	> 30	> 30	> 30	> 30	> 30	> 30	> 30	> 30	> 30	> 30	> 30	> 30	> 30	> 30	> 30	> 30
CCN1CCN(C(=O)N[C@@H](C(=O)N[C@@H]2C(=O)N3C(C(=O)O)=C(CSc4nnnn4C)CS[C@H]23)c2ccc(O)cc2)C(=O)C1=O [CEFOPERAZONE]		> 30	> 30	> 30	> 30	> 30	> 30	> 30	> 30	> 30	> 30	9.5	> 30	> 30	> 30	> 30
CCC1(CC)C(=O)NCC(C)C1=O (stereo not drawn) [METHYPRYLON]		> 30	> 30	> 30	> 30	> 30	> 30	> 30	> 30	> 30	> 30	> 30	> 30	> 30	> 30	> 30
CC(C)OC(=O)CCC/C=C\C[C@@H]1[C@@H](CC[C@@H](O)CCc2ccccc2)[C@H](O)C[C@@H]1O [LATANOPROST]		> 30	> 30	> 30	> 30	> 30	> 30	> 30	> 30	> 30	> 30	> 30	> 30	> 30	> 30	> 30
O=C(NCCNCC(O)COc1ccc(O)cc1)N1CCOCC1 (stereo not drawn) [XAMOTEROL]	> 30	> 30	> 30	> 30	> 30	> 30	> 30	> 30	> 30	> 30	> 30	> 30		> 30	> 30	> 30
